Data: patent EP3925956B1, “1H-INDAZOLE-3-CARBOXAMIDE DERIVATIVES AND RELATED COMPOUNDS AS FACTOR D INHIBITORS FOR TREATING DISEASES CHARACTERIZED BY ABERRANT COMPLEMENT SYSTEM ACTIVITY, SUCH AS E.G. IMMUNOLOGICAL DISORDERS” (BioCryst Pharmaceuticals, Inc., priority 2016, dated 2017)

Biological target: Factor D (Homo sapiens, UniProt P00746)
Assay: Factor D esterolytic assay

Chain of Factor D (P00746 26-253): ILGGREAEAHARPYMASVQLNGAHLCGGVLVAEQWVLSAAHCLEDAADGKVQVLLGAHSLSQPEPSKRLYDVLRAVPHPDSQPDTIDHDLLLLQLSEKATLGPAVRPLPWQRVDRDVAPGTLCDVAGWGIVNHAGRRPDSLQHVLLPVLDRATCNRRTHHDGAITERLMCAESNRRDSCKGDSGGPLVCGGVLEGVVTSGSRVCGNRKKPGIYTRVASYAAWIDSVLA

## NC(=O)c1nn(CC(=O)N(CC(=O)Nc2cccc(Br)n2)[C@H]2C[C@H](N)C2)c2ccccc12 [349d, 1-(2-(((trans)-3-aminocyclobutyl)(2-((6-bromopyridin-2-yl)amino)-2-oxoethyl)amino)-2-oxoethyl)-1H-indazole-3-carboxamide]
  IC50: < 1 µM
